Laboratory results from the Kinase Knowledgebase extract (Sharma et al. 2016).

Molecular target: MAPK14 (human) (UniProt Q16539)
Assay: Inhibition of LPS Stimulated TNF Production by U937 Cells
Conditions: for inhibition: concentration not given here

Chain of MAPK14 (human) (Q16539 whole entry, looked up): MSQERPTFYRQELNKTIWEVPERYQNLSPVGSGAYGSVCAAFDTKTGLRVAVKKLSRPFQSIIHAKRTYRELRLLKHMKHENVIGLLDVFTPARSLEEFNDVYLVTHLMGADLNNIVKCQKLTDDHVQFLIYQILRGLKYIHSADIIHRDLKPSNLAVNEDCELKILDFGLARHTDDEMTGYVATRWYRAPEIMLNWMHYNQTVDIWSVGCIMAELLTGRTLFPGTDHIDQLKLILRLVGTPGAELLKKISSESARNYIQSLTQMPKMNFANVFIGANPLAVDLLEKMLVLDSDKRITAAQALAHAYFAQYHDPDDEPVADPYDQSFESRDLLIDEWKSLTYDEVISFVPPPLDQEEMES

inhibition	IC50	Structure (SMILES)
95%		C[C@@H](NS(=O)(=O)c1ccc(-c2ccon2)s1)c1[nH]nc(-c2ccc(F)cc2)c1-c1ccncc1
28%		Cc1noc(C)c1C(=O)NCc1[nH]nc(-c2ccc(F)cc2)c1-c1ccncc1
	301 nM	Cc1cccc(-c2n[nH]cc2-c2ccnc(C)c2)c1
	1090 nM	Fc1ccc(-c2[nH]nc(Nc3ccccc3)c2-c2ccncc2)cc1
75%		C[C@@H](NC(=O)c1c(F)cc(F)cc1F)c1[nH]nc(-c2ccc(F)cc2)c1-c1ccncc1
	900 nM	C[C@@H](NS(=O)(=O)c1ccc(F)cc1)c1[nH]nc(-c2ccc(F)cc2)c1-c1ccncc1
92%		COc1ccc(C)cc1S(=O)(=O)N[C@H](C)c1[nH]nc(-c2ccc(F)cc2)c1-c1ccncc1
22%		O=C(NCc1[nH]nc(-c2ccc(F)cc2)c1-c1ccncc1)c1cccc(OC(F)(F)F)c1
1%		CNC(=O)CC[C@H](NS(=O)(=O)c1ccccc1F)c1[nH]nc(-c2ccc(F)cc2)c1-c1ccncc1
23%		CS(=O)(=O)c1ccccc1S(=O)(=O)NCc1[nH]nc(-c2ccc(F)cc2)c1-c1ccncc1
56%		C[C@H](NC(=O)c1c(F)cccc1F)c1[nH]nc(-c2ccc(F)cc2)c1-c1ccncc1
70%		C[C@@H](NS(=O)(=O)c1ccccc1C(F)(F)F)c1[nH]nc(-c2ccc(F)cc2)c1-c1ccncc1
73%		C[C@H](NS(=O)(=O)c1ccccc1S(C)(=O)=O)c1[nH]nc(-c2ccc(F)cc2)c1-c1ccncc1
	> 10000 nM	C#CCn1ncc(-c2ccncc2)c1-c1ccc(F)cc1
	2970 nM	O=C(NCc1[nH]nc(-c2ccc(F)cc2)c1-c1ccncc1)c1ccccc1I
76%		CC(C)c1ccc(S(=O)(=O)N[C@@H](C)c2[nH]nc(-c3ccc(F)cc3)c2-c2ccncc2)cc1
17%		NC(=O)N[C@@H](Cc1ccccc1)c1[nH]nc(-c2ccc(F)cc2)c1-c1ccncc1
36%		C[C@H](NC(=O)NCCc1ccccc1)c1[nH]nc(-c2ccc(F)cc2)c1-c1ccncc1
49%		CCN(CC)C(=O)N[C@H](C)c1[nH]nc(-c2ccc(F)cc2)c1-c1ccncc1
79%		C[C@H](NS(=O)(=O)c1cc(Cl)c(Cl)s1)c1[nH]nc(-c2ccc(F)cc2)c1-c1ccncc1
18%		O=S(=O)(NCCCc1[nH]nc(-c2ccc(F)cc2)c1-c1ccncc1)c1cccc(Cl)c1Cl
61%		C[C@@H](NS(=O)(=O)C[C@@]12CC[C@H](CC1=O)C2(C)C)c1[nH]nc(-c2ccc(F)cc2)c1-c1ccncc1

inhibition	IC50	Structure (SMILES)
6%		O=S(=O)(NCc1[nH]nc(-c2ccc(F)cc2)c1-c1ccncc1)c1cc(Cl)cc(Cl)c1O
38%		COc1cccc(C(=O)N[C@H](Cc2ccccc2)c2[nH]nc(-c3ccc(F)cc3)c2-c2ccncc2)c1
29%		C[C@H](NC(=O)c1ccc(C(F)(F)F)cc1)c1[nH]nc(-c2ccc(F)cc2)c1-c1ccncc1
43%		C[C@H](NC(=O)c1cc(F)c(F)cc1F)c1[nH]nc(-c2ccc(F)cc2)c1-c1ccncc1
85%		C[C@H](NS(=O)(=O)c1ccc(F)cc1Cl)c1[nH]nc(-c2ccc(F)cc2)c1-c1ccncc1
27%		C[C@@H](NC(=O)c1cccc(Br)c1)c1[nH]nc(-c2ccc(F)cc2)c1-c1ccncc1
28%		CNC(=O)CC[C@H](NC(=O)C1CC1)c1[nH]nc(-c2ccc(F)cc2)c1-c1ccncc1
75%		O=S(=O)(NCc1[nH]nc(-c2ccc(F)cc2)c1-c1ccncc1)c1cccc(C(F)(F)F)c1
18%		O=C(NCc1[nH]nc(-c2ccc(F)cc2)c1-c1ccncc1)c1sc2ccccc2c1Cl
	> 1000 nM	O=C(N[C@H](Cc1ccccc1)c1[nH]nc(-c2ccc(F)cc2)c1-c1ccncc1)c1ccc(F)cc1
13%		CCCS(=O)(=O)N[C@H](Cc1ccccc1)c1[nH]nc(-c2ccc(F)cc2)c1-c1ccncc1
75%		C[C@@H](NS(=O)(=O)c1c(Cl)cccc1Cl)c1[nH]nc(-c2ccc(F)cc2)c1-c1ccncc1
	> 1000 nM	CNC(=O)CC[C@H](NC(=O)c1ccccc1F)c1[nH]nc(-c2ccc(F)cc2)c1-c1ccncc1
65%		CCCOC(=O)NCc1[nH]nc(-c2ccc(F)cc2)c1-c1ccncc1
47%		CC(C)NC(=O)N[C@@H](C)c1[nH]nc(-c2ccc(F)cc2)c1-c1ccncc1
78%		C[C@H](NS(=O)(=O)c1cccc2nonc12)c1[nH]nc(-c2ccc(F)cc2)c1-c1ccncc1
	840 nM	C[C@H](NC(=O)NCc1ccccc1)c1[nH]nc(-c2ccc(F)cc2)c1-c1ccncc1
38%		O=C(N[C@H](Cc1ccccc1)c1[nH]nc(-c2ccc(F)cc2)c1-c1ccncc1)c1cccnc1
29%		Cc1c(Cl)cccc1S(=O)(=O)NCCc1[nH]nc(-c2ccc(F)cc2)c1-c1ccncc1
68%		Cc1c(C)c(S(=O)(=O)N[C@H](C)c2[nH]nc(-c3ccc(F)cc3)c2-c2ccncc2)c(C)c2c1OC(C)(C)CC2
43%		C[C@@H](NC(=O)c1cc(C(F)(F)F)ccc1F)c1[nH]nc(-c2ccc(F)cc2)c1-c1ccncc1
	5000 nM	O=S(=O)(c1ccccc1F)N1CCC(c2[nH]nc(-c3ccc(F)cc3)c2-c2ccncc2)CC1

inhibition	IC50	Structure (SMILES)
54%		C[C@@H](NS(=O)(=O)[C@@]12CC[C@H](CC1=O)C2(C)C)c1[nH]nc(-c2ccc(F)cc2)c1-c1ccncc1
29%		CCCCOc1ccc(S(=O)(=O)NCCc2[nH]nc(-c3ccc(F)cc3)c2-c2ccncc2)cc1
	250 nM	O=C(c1ccccn1)N1CCC(c2[nH]nc(-c3ccc(F)cc3)c2-c2ccncc2)CC1
42%		Cc1cccc(C)c1NC(=O)N[C@@H](C)c1[nH]nc(-c2ccc(F)cc2)c1-c1ccncc1
48%		O=C(NCc1[nH]nc(-c2ccc(F)cc2)c1-c1ccncc1)c1c(F)cccc1F
28%		CC(C)=CC(=O)N[C@H](C)c1[nH]nc(-c2ccc(F)cc2)c1-c1ccncc1
	50 nM	C[C@@H](NS(=O)(=O)Cc1ccccc1)c1[nH]nc(-c2ccc(F)cc2)c1-c1ccncc1
90%		C[C@@H](NS(=O)(=O)c1ccc(C#N)cc1)c1[nH]nc(-c2ccc(F)cc2)c1-c1ccncc1
40%		CC(C)C(=O)N[C@H](C)c1[nH]nc(-c2ccc(F)cc2)c1-c1ccncc1
91%		O=S(=O)(NCCc1[nH]nc(-c2ccc(F)cc2)c1-c1ccncc1)c1cccc2cnccc12
65%		C[C@H](NS(=O)(=O)c1cc(Cl)cc(Cl)c1)c1[nH]nc(-c2ccc(F)cc2)c1-c1ccncc1
11%		CNC(=O)N[C@@H](Cc1ccccc1)c1[nH]nc(-c2ccc(F)cc2)c1-c1ccncc1
	2360 nM	CCOc1ccc(-c2[nH]nc(C)c2-c2ccncc2)cc1
92%		C[C@@H](NS(=O)(=O)c1ccc(Cl)cc1)c1[nH]nc(-c2ccc(F)cc2)c1-c1ccncc1
42%		C=CCNC(=O)N[C@@H](C)c1[nH]nc(-c2ccc(F)cc2)c1-c1ccncc1
29%		CCCC(CCC)C(=O)NCc1[nH]nc(-c2ccc(F)cc2)c1-c1ccncc1
47%		C[C@H](NC(=O)[C@@H]1CCCN1)c1[nH]nc(-c2ccc(F)cc2)c1-c1ccncc1
25%		C[C@H](NC(=O)N[C@H](C)c1[nH]nc(-c2ccc(F)cc2)c1-c1ccncc1)c1ccccc1
68%		C[C@H](NS(=O)(=O)c1cccc2c(N(C)C)cccc12)c1[nH]nc(-c2ccc(F)cc2)c1-c1ccncc1
	2760 nM	O=C(NCc1[nH]nc(-c2ccc(F)cc2)c1-c1ccncc1)c1ccc(F)cc1
14%		CCOC(=O)c1cccc(NC(=O)NCc2[nH]nc(-c3ccc(F)cc3)c2-c2ccncc2)c1
25%		Cc1cc(C)c(NC(=O)NCc2[nH]nc(-c3ccc(F)cc3)c2-c2ccncc2)c(C)c1

inhibition	IC50	Structure (SMILES)
	> 1000 nM	CC(C)(C)c1ccc(S(=O)(=O)NCc2[nH]nc(-c3ccc(F)cc3)c2-c2ccncc2)cc1
	298 nM	N#Cc1cc(-c2c[nH]nc2-c2ccc(F)cc2)ccn1
24%		Cn1cnc(S(=O)(=O)NCc2[nH]nc(-c3ccc(F)cc3)c2-c2ccncc2)c1
88%		C[C@H](NS(=O)(=O)c1ccc(Cl)cc1Cl)c1[nH]nc(-c2ccc(F)cc2)c1-c1ccncc1
85%		C[C@H](NS(=O)(=O)c1ccc(F)c(Cl)c1)c1[nH]nc(-c2ccc(F)cc2)c1-c1ccncc1
	1380 nM	O=C(c1ccc(Br)cc1)N1CCC(c2[nH]nc(-c3ccc(F)cc3)c2-c2ccncc2)CC1
87%		Cc1cc(C)c(S(=O)(=O)N[C@@H](C)c2[nH]nc(-c3ccc(F)cc3)c2-c2ccncc2)c(C)c1
8%		CNC(=O)CC[C@H](NC(=O)c1ccncc1)c1[nH]nc(-c2ccc(F)cc2)c1-c1ccncc1
28%		COc1ccc(CC(=O)N[C@H](C)c2[nH]nc(-c3ccc(F)cc3)c2-c2ccncc2)cc1OC
36%		COc1ccccc1CCNC(=O)Cn1nc(-c2ccc(F)cc2)c(-c2ccncc2)c1C
72%		C[C@H](NS(=O)(=O)c1ccc(S(=O)(=O)c2ccccc2)s1)c1[nH]nc(-c2ccc(F)cc2)c1-c1ccncc1
3%		O=C(N[C@H](Cc1ccccc1)c1[nH]nc(-c2ccc(F)cc2)c1-c1ccncc1)C1CCCC1
11%		C[C@@H](NC(=O)c1cc(Cl)cc(Cl)c1)c1[nH]nc(-c2ccc(F)cc2)c1-c1ccncc1
15%		Cc1c(Cl)cccc1S(=O)(=O)NCc1[nH]nc(-c2ccc(F)cc2)c1-c1ccncc1
41%		CN(C(=O)NCCc1[nH]nc(-c2ccc(F)cc2)c1-c1ccncc1)c1ccccc1
58%		C[C@H](NS(=O)(=O)c1cccc2cccnc12)c1[nH]nc(-c2ccc(F)cc2)c1-c1ccncc1
90%		C[C@H](NS(=O)(=O)c1ccc(Cl)c(Cl)c1)c1[nH]nc(-c2ccc(F)cc2)c1-c1ccncc1
	198 nM	OCCn1cc(-c2ccncc2)c(-c2ccc(F)cc2)n1
33%		O=C(NCc1[nH]nc(-c2ccc(F)cc2)c1-c1ccncc1)c1cccc(Cl)c1Cl
90%		C[C@H](NS(=O)(=O)c1cc(S(=O)(=O)c2ccccc2)cs1)c1[nH]nc(-c2ccc(F)cc2)c1-c1ccncc1
	74 nM	Cc1n[nH]c(-c2cccc(Cl)c2)c1-c1ccncc1
	> 1000 nM	Cc1onc(-c2c(F)cccc2Cl)c1C(=O)NCc1[nH]nc(-c2ccc(F)cc2)c1-c1ccncc1
